# Experimental data reported in PubChem BioAssay (NCI).
#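 GI50 is the concentration that inhibits growth by half. The concentration for full growth arrest is given as TGI.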
# Key:
# Experiment in all cases: growth of human tumour cells (NCI), 384-well format
# [1] = test system: 786-0 renal
# [2] = test system: A498 renal
# [3] = test system: A549 NSCLC
# [4] = test system: ACHN renal
# [5] = test system: BT-549 breast
# [6] = test system: CAKI-1 renal
# [7] = test system: CCRF-CEM leukemia
# [8] = test system: COLO 205 colon
# [9] = test system: DU-145 prostate
# [10] = test system: EKVX NSCLC
# [11] = test system: HCC-2998 colon
# [12] = test system: HCT-116 colon
# [13] = test system: HCT-15 colon
# [14] = test system: HL-60(TB) leukemia
# [15] = test system: HOP-62 NSCLC
# [16] = test system: HOP-92 NSCLC
# [17] = test system: HS 578T breast
# [18] = test system: HT29 colon
# [19] = test system: IGROV1 ovarian
# [20] = test system: K-562 leukemia
# [21] = test system: KM12 colon
# [22] = test system: LOX IMVI melanoma
# [23] = test system: M14 melanoma
# [24] = test system: MALME-3M melanoma
# [25] = test system: MCF7 breast
# [26] = test system: MDA-MB-231 breast
# [27] = test system: MDA-MB-435 melanoma
# [28] = test system: MDA-MB-468 breast
# [29] = test system: MOLT-4 leukemia
# [30] = test system: NCI-H226 lung
# [31] = test system: NCI-H23 lung
# [32] = test system: NCI-H322M lung
# [33] = test system: NCI-H460 NSCLC
# [34] = test system: NCI-H522 lung
# [35] = test system: NCI/ADR-RES ovarian
# [36] = test system: OVCAR-3 ovarian
# [37] = test system: OVCAR-4 ovarian
# [38] = test system: OVCAR-5 ovarian
# [39] = test system: OVCAR-8 ovarian
# [40] = test system: PC-3 prostate
# [41] = test system: RPMI-8226 leukemia
# [42] = test system: RXF 393 renal
# [43] = test system: SF-268 CNS
# [44] = test system: SF-295 CNS
# [45] = test system: SF-539 CNS
# [46] = test system: SK-MEL-28 melanoma
# [47] = test system: SK-MEL-5 melanoma
# [48] = test system: SK-OV-3 ovarian
# [49] = test system: SN12C renal
# [50] = test system: SNB-19 CNS
# [51] = test system: SNB-75 CNS
# [52] = test system: SW-620 colon
# [53] = test system: T-47D breast
# [54] = test system: TK-10 renal
# [55] = test system: U251 glioblastoma
# [56] = test system: UACC-257 melanoma
# [57] = test system: UACC-62 melanoma
# [58] = test system: UO-31 renal
smiles,measurement,setting,value
Cc1nnn(C)c1-c1cnc2c3ccc(C(C)(C)O)cc3n([C@H](c3ccccc3)C3CCOCC3)c2c1,GI50,[1],15 nM
same,TGI,[1],11700 nM
same,GI50,[2],< 10 nM
same,TGI,[2],10700 nM
same,GI50,[3],< 10 nM
same,TGI,[3],13000 nM
same,GI50,[4],44.5 nM
same,TGI,[4],12200 nM
same,GI50,[5],< 10 nM
same,TGI,[5],72.7 nM
same,GI50,[6],< 10 nM
same,TGI,[6],3960 nM
same,GI50,[7],< 10 nM
same,TGI,[7],1420 nM
same,GI50,[8],< 10 nM
same,TGI,[8],331 nM
same,GI50,[9],753 nM
same,TGI,[9],22100 nM
same,GI50,[10],3190 nM
same,TGI,[10],21600 nM
same,GI50,[11],< 10 nM
same,TGI,[11],49.7 nM
same,GI50,[12],24.2 nM
same,TGI,[12],12800 nM
same,GI50,[13],13.9 nM
same,TGI,[13],1320 nM
same,GI50,[14],< 10 nM
same,GI50,[15],< 10 nM
same,TGI,[15],2770 nM
same,GI50,[16],25.3 nM
same,TGI,[16],14500 nM
same,GI50,[17],< 10 nM
same,TGI,[17],758 nM
same,GI50,[18],< 10 nM
same,TGI,[18],15100 nM
same,GI50,[19],< 10 nM
same,TGI,[19],1360 nM
same,GI50,[20],< 10 nM
same,TGI,[20],13800 nM
same,GI50,[21],< 10 nM
same,TGI,[21],10800 nM
same,GI50,[22],< 10 nM
same,TGI,[22],11.3 nM
same,GI50,[23],< 10 nM
same,TGI,[23],15700 nM
same,GI50,[24],< 10 nM
same,TGI,[24],268 nM
same,GI50,[25],< 10 nM
same,TGI,[25],435 nM
same,GI50,[26],< 10 nM
same,TGI,[26],11800 nM
same,GI50,[27],43.1 nM
same,TGI,[27],61700 nM
same,GI50,[28],< 10 nM
same,TGI,[28],1220 nM
same,GI50,[29],< 10 nM
same,TGI,[29],211 nM
same,GI50,[30],< 10 nM
same,TGI,[30],10300 nM
same,GI50,[31],< 10 nM
same,TGI,[31],3350 nM
same,GI50,[32],19 nM
same,TGI,[32],17500 nM
same,GI50,[33],354 nM
same,TGI,[33],15600 nM
same,GI50,[34],< 10 nM
same,TGI,[34],10.6 nM
same,GI50,[35],197 nM
same,TGI,[35],8560 nM
same,GI50,[36],< 10 nM
same,TGI,[36],1710 nM
same,GI50,[37],< 10 nM
same,TGI,[37],21.2 nM
same,GI50,[38],< 10 nM
same,TGI,[38],12600 nM
same,GI50,[39],< 10 nM
same,TGI,[39],1300 nM
same,GI50,[40],< 10 nM
same,TGI,[40],25000 nM
same,GI50,[41],< 10 nM
same,GI50,[42],< 10 nM
same,TGI,[42],155 nM
same,GI50,[43],79.3 nM
same,TGI,[43],16800 nM
same,GI50,[44],380 nM
same,TGI,[44],17000 nM
same,GI50,[45],10.3 nM
same,TGI,[45],54.3 nM
same,GI50,[46],89.9 nM
same,TGI,[46],24200 nM
same,GI50,[47],< 10 nM
same,TGI,[47],1110 nM
same,GI50,[48],< 10 nM
same,TGI,[48],1450 nM
same,GI50,[49],1210 nM
same,TGI,[49],20600 nM
same,GI50,[50],32 nM
same,TGI,[50],20300 nM
same,GI50,[51],299 nM
same,TGI,[51],14000 nM
same,GI50,[52],1740 nM
same,TGI,[52],17400 nM
same,GI50,[53],13.7 nM
same,TGI,[53],11100 nM
same,GI50,[54],< 10 nM
same,TGI,[54],90.8 nM
same,GI50,[55],315 nM
same,TGI,[55],12700 nM
same,GI50,[56],< 10 nM
same,TGI,[56],5550 nM
same,GI50,[57],< 10 nM
same,TGI,[57],146 nM
same,GI50,[58],13.2 nM
same,TGI,[58],13400 nM
